Reference: article PMC6199744, “Development of Chemical Proteomics for the Folateome and Analysis of the Kinetoplastid Folateome” (ACS Infectious Diseases, 2018)
Read-outs that look alike come from different tables or passages of the source.

Key:
Assay type in all cases: binding
[1] = biological target: T1, HeLa cell extract proteins (Homo sapiens, UniProt P06753)
T1 construct: endogenous in cells; host or cells: HeLa cell extract

[2] = biological target: T2, HeLa cell extract proteins (Homo sapiens, UniProt P30740)
T2 construct: endogenous in cells; host or cells: HeLa cell extract
T2 sequence (P30740 1-379): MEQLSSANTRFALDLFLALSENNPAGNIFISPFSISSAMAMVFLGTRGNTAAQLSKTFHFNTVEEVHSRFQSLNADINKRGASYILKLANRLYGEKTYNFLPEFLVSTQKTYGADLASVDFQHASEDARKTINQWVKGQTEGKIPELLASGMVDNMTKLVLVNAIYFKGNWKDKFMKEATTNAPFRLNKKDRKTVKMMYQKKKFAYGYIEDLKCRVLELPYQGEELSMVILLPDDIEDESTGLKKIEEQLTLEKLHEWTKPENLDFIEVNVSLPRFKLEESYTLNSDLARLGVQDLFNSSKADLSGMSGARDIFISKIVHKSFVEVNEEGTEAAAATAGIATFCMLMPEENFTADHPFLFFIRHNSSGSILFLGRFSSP

[3] = biological target: T3, HeLa cell extract proteins (Homo sapiens, UniProt P31327)
T3 construct: endogenous in cells; host or cells: HeLa cell extract
T3 sequence (P31327 39-1500): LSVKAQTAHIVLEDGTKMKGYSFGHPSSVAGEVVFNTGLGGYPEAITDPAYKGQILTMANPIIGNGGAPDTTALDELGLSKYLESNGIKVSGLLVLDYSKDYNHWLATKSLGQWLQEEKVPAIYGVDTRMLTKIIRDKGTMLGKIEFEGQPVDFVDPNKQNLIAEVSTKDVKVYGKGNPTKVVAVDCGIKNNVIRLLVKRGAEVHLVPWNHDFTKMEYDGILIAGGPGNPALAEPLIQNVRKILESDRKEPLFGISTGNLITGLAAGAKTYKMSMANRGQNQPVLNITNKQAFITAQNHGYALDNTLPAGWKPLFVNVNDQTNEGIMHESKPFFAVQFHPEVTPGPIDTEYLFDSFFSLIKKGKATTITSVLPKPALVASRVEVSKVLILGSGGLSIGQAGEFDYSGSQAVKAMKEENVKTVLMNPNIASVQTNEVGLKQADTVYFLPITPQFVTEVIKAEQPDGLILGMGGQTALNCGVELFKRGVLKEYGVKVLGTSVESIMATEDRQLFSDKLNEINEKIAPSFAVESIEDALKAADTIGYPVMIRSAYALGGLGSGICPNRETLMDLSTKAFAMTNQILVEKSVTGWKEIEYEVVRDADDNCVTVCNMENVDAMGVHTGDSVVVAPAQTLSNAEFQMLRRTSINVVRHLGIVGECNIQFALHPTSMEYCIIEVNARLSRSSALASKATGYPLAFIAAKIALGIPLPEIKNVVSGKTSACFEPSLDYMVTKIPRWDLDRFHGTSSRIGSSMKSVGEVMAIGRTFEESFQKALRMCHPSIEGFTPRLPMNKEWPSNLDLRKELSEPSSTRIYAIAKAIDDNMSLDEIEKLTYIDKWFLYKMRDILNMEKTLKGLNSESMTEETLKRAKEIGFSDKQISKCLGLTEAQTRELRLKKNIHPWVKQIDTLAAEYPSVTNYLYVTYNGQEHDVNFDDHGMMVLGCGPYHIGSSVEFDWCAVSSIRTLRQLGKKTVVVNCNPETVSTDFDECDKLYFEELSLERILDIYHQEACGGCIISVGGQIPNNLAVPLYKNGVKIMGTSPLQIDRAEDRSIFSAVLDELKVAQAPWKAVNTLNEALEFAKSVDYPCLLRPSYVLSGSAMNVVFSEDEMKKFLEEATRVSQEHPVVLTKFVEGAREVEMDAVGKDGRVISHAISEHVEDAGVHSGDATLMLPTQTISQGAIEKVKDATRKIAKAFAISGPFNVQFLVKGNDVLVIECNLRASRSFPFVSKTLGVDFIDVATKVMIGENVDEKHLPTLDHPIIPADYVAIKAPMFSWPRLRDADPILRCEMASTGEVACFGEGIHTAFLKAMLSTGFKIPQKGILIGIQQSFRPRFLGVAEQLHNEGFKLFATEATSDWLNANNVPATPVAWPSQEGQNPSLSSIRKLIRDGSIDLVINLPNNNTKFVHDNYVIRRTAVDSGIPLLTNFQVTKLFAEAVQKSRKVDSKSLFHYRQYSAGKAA

[4] = biological target: T4, HeLa cell extract proteins (Homo sapiens, UniProt P40926)
T4 construct: endogenous in cells; host or cells: HeLa cell extract
T4 sequence (P40926 25-338): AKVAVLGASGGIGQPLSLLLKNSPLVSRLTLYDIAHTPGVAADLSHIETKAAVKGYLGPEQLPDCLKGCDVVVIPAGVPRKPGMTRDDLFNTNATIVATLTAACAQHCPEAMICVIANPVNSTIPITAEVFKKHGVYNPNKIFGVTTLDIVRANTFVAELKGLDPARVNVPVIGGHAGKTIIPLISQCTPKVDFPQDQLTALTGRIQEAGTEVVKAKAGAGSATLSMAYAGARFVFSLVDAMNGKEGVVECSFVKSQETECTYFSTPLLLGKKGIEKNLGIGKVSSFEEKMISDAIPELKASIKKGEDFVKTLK

[5] = biological target: T5, HeLa cell extract proteins (Homo sapiens, UniProt P53701)
T5 construct: endogenous in cells; host or cells: HeLa cell extract
T5 sequence (P53701 1-268): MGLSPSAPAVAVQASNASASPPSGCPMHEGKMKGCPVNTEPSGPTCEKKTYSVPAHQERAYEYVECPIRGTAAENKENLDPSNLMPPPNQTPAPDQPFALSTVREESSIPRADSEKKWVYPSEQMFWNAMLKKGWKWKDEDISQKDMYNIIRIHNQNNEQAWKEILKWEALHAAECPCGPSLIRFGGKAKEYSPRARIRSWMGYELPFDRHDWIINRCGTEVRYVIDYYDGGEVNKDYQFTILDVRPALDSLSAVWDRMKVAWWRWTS

[6] = biological target: T6, HeLa cell extract proteins (Homo sapiens, UniProt Q6P1J9)
T6 construct: endogenous in cells; host or cells: HeLa cell extract

T1 sequence (P06753 whole entry): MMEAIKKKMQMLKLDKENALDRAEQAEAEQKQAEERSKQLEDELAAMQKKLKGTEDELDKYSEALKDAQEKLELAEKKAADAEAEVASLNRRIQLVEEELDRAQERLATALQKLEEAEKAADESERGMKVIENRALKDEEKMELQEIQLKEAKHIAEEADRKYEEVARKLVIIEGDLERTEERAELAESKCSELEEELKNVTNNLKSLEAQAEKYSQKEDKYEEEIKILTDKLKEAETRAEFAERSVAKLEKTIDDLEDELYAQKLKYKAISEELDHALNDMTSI

Row | Compound | fold changes relative to vehicle control ([1]; protein TPM3, HeLa) | fold changes relative to vehicle control ([2]; protein SERPINB1, HeLa) | fold changes relative to vehicle control ([3]; protein CPS1, HeLa) | fold changes relative to vehicle control ([4]; protein MDH2, HeLa) | fold changes relative to vehicle control ([5]; HeLa, protein HCCS) | fold changes relative to vehicle control ([6]; protein CDC73, HeLa) | fold changes relative to vehicle control ([2]; HeLa, protein SERPINB1) | fold changes relative to vehicle control ([3]; HeLa, captured protein CPS1) | fold changes relative to vehicle control ([4]; HeLa, protein MDH2) | fold changes relative to vehicle control [1] | fold changes relative to vehicle control [2] | fold changes relative to vehicle control [3] | fold changes relative to vehicle control [4] | fold changes relative to vehicle control [5] | fold changes relative to vehicle control [6]
1 | Nc1nc2cccc(-c3ccccc3)c2n1Cc1ccc(Cl)c(Cl)c1 [compound 3] | 0.87 | 0.98 | 1.09 | 0.92 | 0.96 | 0.88 |  |  |  |  |  |  |  |  | 
2 | CCCCCCOc1ccc(Cc2cnc(N)nc2N)cc1 [compound 1] | 1.18 | 1.07 | 1.27 | 1.26 | 0.84 | 1.18 |  |  |  |  |  |  |  |  | 
3 | NCCCNc1ccc(C(=O)NC(CCC(=O)O)C(=O)O)cc1 (stereo not drawn) [compound 7] | 1.1 |  |  |  | 0.98 | 0.76 | 0.99 | 1.05 | 0.96 |  |  |  |  |  | 
4 | CCCCCCOc1cccc(Cc2cnc(N)nc2N)c1 [compound 2] | 2.05 | 1.28 | 1.61 | 1.97 | 0.9 | 1.08 |  |  |  |  |  |  |  |  | 
5 | NCCOCCOCC(=O)Nc1nc2ncc(CNc3ccc(C(=O)NC(CCC(=O)O)C(=O)O)cc3)nc2c(=O)[nH]1 (stereo not drawn) [compound 6] | 1.18 |  |  |  | 0.75 | 0.88 | 1.09 | 1.27 | 1.34 |  |  |  |  |  | 
6 | Nc1nc2[nH]cc(CCc3ccc(C(=O)N[C@@H](CCC(=O)O)C(=O)O)cc3)c2c(=O)[nH]1 [PTX, pemetrexed] |  |  |  |  |  |  |  |  |  | 0.89 | 1.06 | 1.08 | 1.11 | 0.88 | 0.76
7 | Nc1nc2c(c(=O)[nH]1)N(C=O)C(CNc1ccc(C(=O)N[C@@H](CCC(=O)O)C(=O)O)cc1)CN2 (stereo partly drawn) [LEU, leucovorin] | 0.93 |  |  |  | 0.88 | 0.81 | 0.98 | 1.13 | 1.06 |  |  |  |  |  | 
